Laboratory results as given in PMC2867072 (Chemical communications (Cambridge, England), 2010).
Like-named read-outs stand apart in the source and are kept apart here.

Legend:
MMP-9 (gelatinase-B) = MMP-9 (gelatinase-B) (Homo sapiens, UniProt P14780); experiment: fluorescence-based MMP-9 inhibition assay; assay type: biochemical; settings: for inhibition at 1000 µM: read-out: percent inhibition of MMP-9
MMP-8 = MMP-8 (Homo sapiens, UniProt P22894); experiment: fluorescence-based MMP-8 inhibition assay; assay type: biochemical; settings: MMP-8, fluorescence based assay
Sequence of MMP-8 (P22894 101-467, species assumed): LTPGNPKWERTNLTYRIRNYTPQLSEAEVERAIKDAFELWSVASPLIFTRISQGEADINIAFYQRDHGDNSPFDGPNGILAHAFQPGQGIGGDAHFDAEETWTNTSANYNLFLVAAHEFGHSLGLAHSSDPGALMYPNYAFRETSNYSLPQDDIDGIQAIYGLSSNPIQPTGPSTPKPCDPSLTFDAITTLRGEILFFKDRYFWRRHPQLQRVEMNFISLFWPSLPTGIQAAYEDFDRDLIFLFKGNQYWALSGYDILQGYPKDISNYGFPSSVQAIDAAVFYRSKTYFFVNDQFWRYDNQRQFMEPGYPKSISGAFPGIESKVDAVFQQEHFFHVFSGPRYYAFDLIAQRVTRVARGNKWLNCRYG

Sequence of MMP-9 (gelatinase-B) (P14780 94-707, species assumed): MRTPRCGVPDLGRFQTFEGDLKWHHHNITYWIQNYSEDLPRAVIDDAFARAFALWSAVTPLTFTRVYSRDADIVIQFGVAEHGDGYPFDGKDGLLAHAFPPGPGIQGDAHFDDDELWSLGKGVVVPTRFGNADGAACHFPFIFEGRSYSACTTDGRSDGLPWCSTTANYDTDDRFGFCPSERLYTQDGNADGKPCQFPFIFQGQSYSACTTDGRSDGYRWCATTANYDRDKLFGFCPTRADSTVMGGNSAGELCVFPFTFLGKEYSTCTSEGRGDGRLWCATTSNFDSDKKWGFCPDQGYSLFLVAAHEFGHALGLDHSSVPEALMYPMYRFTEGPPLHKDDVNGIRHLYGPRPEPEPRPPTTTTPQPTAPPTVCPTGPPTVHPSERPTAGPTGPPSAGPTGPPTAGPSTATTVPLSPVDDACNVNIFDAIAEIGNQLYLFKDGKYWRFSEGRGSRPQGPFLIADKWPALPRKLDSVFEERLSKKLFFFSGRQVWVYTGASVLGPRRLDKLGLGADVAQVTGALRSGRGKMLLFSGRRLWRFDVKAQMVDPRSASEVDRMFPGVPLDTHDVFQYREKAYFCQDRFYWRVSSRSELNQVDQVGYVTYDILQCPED

| IC50 (MMP-9 (gelatinase-B)) [µM] | inhibition at 1000 µM (MMP-9 (gelatinase-B)) [%] | IC50 (MMP-9 (gelatinase-B); MMP-9, fluorescence based assay) [µM] | IC50 (MMP-8) [µM] | Structure (SMILES) |
| --- | --- | --- | --- | --- |
| 4030 | ~50 |  |  | Cc1occc(=O)c1O [Compound 3, 3-hydroxy-2-methyl-4-pyrone] |
| 138 | ~50 |  |  | Cc1occc(=S)c1O [Compound 5, 3-hydroxy-2-methyl-4-pyrothione] |
|  |  | 2.7 | 0.075 | O=C(NCc1ccc(-c2ccccc2)cc1)c1cccc(=O)n1O [Compound 7, 1,2-HOPO-2] |
